Where two headings read alike, the source gives them in different places.
Experiments:
[1] = system: Venturia inaequalis; experiment: Venturia test (apple)/protective; type: in vivo; conditions: topical, 240 h, protective spray, application rate 100 g/ha, evaluation 10 days after inoculation, read-out: Efficacy in %
Protocol: (§1) [table] To produce a suitable preparation of active compound, 1 part by weight of active compound is mixed with the stated amounts of solvent and emulsifier, and the concentrate is diluted with water to the desired concentration. To test for protective activity, young plants are sprayed with the preparation of active compound at the stated application rate. After the spray coating has dried on, the plants are inoculated with an aqueous conidia suspension of the apple scab pathogen Venturia inaequalis and then remain in an incubation cabin at about 20° C. and 100% relative atmospheric humidity for 1 day. The plants are then placed in a greenhouse at about 21° C. and a relative atmospheric humidity of about 90%. Evaluation is carried out 10 days after the inoculation. 0% means an efficacy which corresponds to that of the control, whereas an efficacy of 100% means that no infection is observed.

[2] = system: Sphaerotheca fuliginea; experiment: Sphaerotheca test (cucumber)/protective; type: in vivo; conditions: Podosphaera fuliginea, topical, 168 h, protective spray, application rate 100 g/ha, evaluation 7 days after inoculation, read-out: Efficacy in %
Protocol: as §1, with “aqueous spore” for “aqueous conidia”, “the Sphaerotheca fuliginea.” for “the apple scab pathogen Venturia inaequalis and then remain in an incubation cabin at about 20° C. and 100% relative atmospheric humidity for 1 day.”, “about 23°” for “about 21°”, “about 70%.” for “about 90%.”, “out 7” for “out 10”

[3] = logP determination by HPLC on reverse-phase column (EEC Directive 79/831 Annex V.A8); type: physicochemical; conditions: reverse-phase C18 HPLC column
Protocol: The logP values given in the tables and Preparation Examples above are determined in accordance with EEC Directive 79/831 Annex V.A8 by HPLC (High Performance Liquid Chromatography) on a reverse-phase column (C 18). Temperature: 43° C. In the acidic range, the determination is carried out at pH 2.3 using the mobile phases 0.1% aqueous phosphoric acid and acetonitrile; linear gradient from 10% acetonitrile to 90% acetonitrile. Calibration is carried out using unbranched alkan-2-ones (of 3 to 16 carbon atoms) with known logP values (determination of the logP values by the retention times using linear interpolation between two successive alkanones).

[4] = system: Alternaria solani; experiment: Alternaria test (tomato)/protective; type: in vivo; conditions: protective spray, application rate 750 g/ha, evaluation 7 days after inoculation
Protocol: [table] To produce a suitable preparation of active compound, 1 part by weight of active compound is mixed with the stated amounts of solvent and emulsifier, and the concentrated is diluted with water to the desired concentration. To test for protective activity, young tomato plants are sprayed with the preparation of active compound at the stated application rate. 1 day after the treatment, the plants are inoculated with a spore suspension of Alternaria solani and are then kept at 100% relative atmospheric humidity and 20° C. for 24 h. The plants are then kept at 96% relative atmospheric humidity and a temperature of 20° C. Evaluation is carried out 7 days after the inoculation. 0% means an efficacy which corresponds to that of the control, whereas an efficacy of 100% means that no infection is observed.

[5] = system: Podosphaera leucotricha; experiment: Podosphaera test (apple)/protective; type: in vivo; conditions: topical, 240 h, protective spray, application rate 100 g/ha, evaluation 10 days after inoculation, read-out: Efficacy in %
Protocol: as §1, with “spore” for “conidia”, “mildew” for “scab”, “Podosphaera leucotricha.” for “Venturia inaequalis and then remain in an incubation cabin at about 20° C. and 100% relative atmospheric humidity for 1 day.”, “23°” for “21°”, “70%.” for “90%.”

[6] = pH 2.3, 43° C., preparation examples, read-out: logP (pH 2.3)
[7] = Table 1, 43° C., acidic range pH 2.3, read-out: logP

SMILES | chromatographic logP [3, 6] | chromatographic logP [3, 7] | pest or weed control at 100 g/ha [1] | pest or weed control at 100 g/ha [2] | Efficacy in % [4] | pest or weed control at 100 g/ha [5]
Cn1cc(C(=O)Nc2c(F)cccc2-c2ccc(Cl)c(Cl)c2)c(C(F)(F)F)n1 [Example 1, N-(3′,4′-dichloro-3-fluoro-1,1′-biphenyl-2-yl)-1-methyl-3-(trifluoromethyl)-1H-pyrazole-4-carboxamide] | 3.1 |  | 100% | 100% | 100% | 100%
Cn1cc(C(=O)Nc2c(F)cccc2-c2ccc(F)c(Cl)c2)c(C(F)(F)F)n1 [Example 2] | 3.04 |  |  |  | 100% | 
Cn1cc(C(=O)Nc2cc(F)ccc2-c2ccc(Cl)c(Cl)c2)c(C(F)(F)F)n1 [Example 3] |  | 3.75 | 100% | 100% | 100% | 100%
Cn1cc(C(=O)Nc2cc(F)ccc2-c2ccc(F)c(Cl)c2)c(C(F)(F)F)n1 [Example 4] |  | 3.51 | 100% | 99% | 100% | 100%
Cn1cc(C(=O)Nc2ccc(F)cc2-c2ccc(Cl)c(Cl)c2)c(C(F)(F)F)n1 [Example 5] |  | 3.57 | 100% | 100% | 100% | 100%
Cn1cc(C(=O)Nc2ccc(F)cc2-c2ccc(F)c(Cl)c2)c(C(F)(F)F)n1 [Example 6] |  | 3.26 | 100% | 98% | 100% | 100%
Cn1cc(C(=O)Nc2c(F)cccc2-c2ccc(Cl)c(Cl)c2)c(C(F)F)n1 [Example 7] |  | 3.1 | 100% | 100% |  | 100%
Cn1cc(C(=O)Nc2cc(F)ccc2-c2ccc(Cl)c(Cl)c2)c(C(F)F)n1 [Example 9] |  | 3.55 | 99% | 94% |  | 83%
Cn1cc(C(=O)Nc2cc(F)ccc2-c2ccc(F)c(Cl)c2)c(C(F)F)n1 [Example 10] |  | 3.29 | 100% | 100% |  | 100%
Cn1cc(C(=O)Nc2ccc(F)cc2-c2ccc(Cl)c(Cl)c2)c(C(F)F)n1 [Example 11] |  | 3.33 | 100% | 100% |  | 100%

Continued, in another order:

chromatographic logP [3, 6] | chromatographic logP [3, 7] | SMILES | pest or weed control at 100 g/ha [1] | pest or weed control at 100 g/ha [2] | Efficacy in % [4] | pest or weed control at 100 g/ha [5]
 | 3.07 | Cn1cc(C(=O)Nc2ccc(F)cc2-c2ccc(F)c(Cl)c2)c(C(F)F)n1 [Example 12] | 100% | 100% |  | 100%
4.09 |  | Nc1c(F)cccc1-c1ccc(Cl)c(Cl)c1 [Example (III-1), 3′,4′-dichloro-3-fluoro-1,1′-biphenyl-2-amine] |  |  |  | 
3.62 |  | Nc1ccc(F)cc1-c1ccc(Cl)c(Cl)c1 [Example (III-2), 3′,4′-Dichloro-5-fluoro-1,1′-biphenyl-2-amine] |  |  |  | 
2.12 |  | Cn1cc(C(=O)Nc2c(F)cccc2Br)c(C(F)(F)F)n1 [Example (IV-1)] |  |  |  | 
